The results in this text go back to PubChem BioAssay AID1259407 (Chemical Carcinogenesis Research Information System (CCRIS), 2018).

The source made the active and inactive calls. No rule for the calls is given here.

The subject of the series is CCRIS mutagenicity, Ames/micronucleus/aberration tests. Nature of the series: CCRIS mutagenicity studies.
Setting [1] is: Test System: AMES SALMONELLA TYPHIMURIUM, Strain/Indicator: TA98, Metabolic Activation: NONE, Method: PREINCUBATION
Setting [2] is: Test System: AMES SALMONELLA TYPHIMURIUM, Strain/Indicator: TA100, Metabolic Activation: NONE, Method: PREINCUBATION
The mark [3] stands for this setting: Test System: AMES SALMONELLA TYPHIMURIUM, Strain/Indicator: TA1535, Metabolic Activation: NONE, Method: PREINCUBATION
The mark [4] stands for this setting: Test System: AMES SALMONELLA TYPHIMURIUM, Strain/Indicator: TA1537, Metabolic Activation: NONE, Method: PREINCUBATION
Setting [5] is: Test System: AMES SALMONELLA TYPHIMURIUM, Strain/Indicator: TA98, Metabolic Activation: RAT LIVER S-9, PHENOBARBITAL AND BETA-NAPHTHOFLAVONE, Method: PREINCUBATION
[6] abbreviates: Test System: AMES SALMONELLA TYPHIMURIUM, Strain/Indicator: TA100, Metabolic Activation: RAT LIVER S-9, PHENOBARBITAL AND BETA-NAPHTHOFLAVONE, Method: PREINCUBATION
[7] abbreviates: Test System: AMES SALMONELLA TYPHIMURIUM, Strain/Indicator: TA1535, Metabolic Activation: RAT LIVER S-9, PHENOBARBITAL AND BETA-NAPHTHOFLAVONE, Method: PREINCUBATION
Where [8] appears, read: Test System: AMES SALMONELLA TYPHIMURIUM, Strain/Indicator: TA1537, Metabolic Activation: RAT LIVER S-9, PHENOBARBITAL AND BETA-NAPHTHOFLAVONE, Method: PREINCUBATION
The mark [9] stands for this setting: Test System: E.COLI, Strain/Indicator: WP2UVRA, Metabolic Activation: NONE, Method: PREINCUBATION
Setting [10] is: Test System: E.COLI, Strain/Indicator: WP2UVRA, Metabolic Activation: RAT LIVER S-9, PHENOBARBITAL AND BETA-NAPHTHOFLAVONE, Method: PREINCUBATION

Consider `Oc1cc(Cl)c(Cl)c(Cl)c1`, for which the mutagenic call reads like this: (End Point: IN VITRO CHROMOSOMAL ABERRATIONS, Test System: CHINESE HAMSTER LUNG CELLS (CHL), Metabolic Activation: RAT, LIVER, S-9, KC-400) “inactive; negative; authors describe results as equivocal”; (End Point: IN VITRO CHROMOSOMAL ABERRATIONS, Test System: CHINESE HAMSTER OVARY CELLS (CHO), Metabolic Activation: NONE) “inactive; negative”; (End Point: IN VITRO CHROMOSOMAL ABERRATIONS, Test System: CHINESE HAMSTER OVARY CELLS (CHO), Metabolic Activation: RAT, LIVER, S-9, AROCLOR 1254) “inactive; negative”; (Test System: AMES SALMONELLA TYPHIMURIUM, Strain/Indicator: TA97, Metabolic Activation: HAMSTER, LIVER, S-9, AROCLOR 1254 (10%), Method: PREINCUBATION) “inactive; negative”; (Test System: AMES SALMONELLA TYPHIMURIUM, Strain/Indicator: TA97, Metabolic Activation: HAMSTER, LIVER, S-9, AROCLOR 1254 (30%), Method: PREINCUBATION) “inactive; negative”; (Test System: AMES SALMONELLA TYPHIMURIUM, Strain/Indicator: TA97, Metabolic Activation: NONE, Method: PREINCUBATION) “inactive; negative”. In addition, the mutagenic call is, setting by setting: (Test System: AMES SALMONELLA TYPHIMURIUM, Strain/Indicator: TA97, Metabolic Activation: RAT, LIVER, S-9, AROCLOR 1254 (10%), Method: PREINCUBATION) “inactive; negative”; (Test System: AMES SALMONELLA TYPHIMURIUM, Strain/Indicator: TA97, Metabolic Activation: RAT, LIVER, S-9, AROCLOR 1254 (30%), Method: PREINCUBATION) “inactive; negative”; (Test System: AMES SALMONELLA TYPHIMURIUM, Strain/Indicator: TA98, Metabolic Activation: HAMSTER, LIVER, S-9, AROCLOR 1254 (10%), Method: PREINCUBATION) “inactive; negative”; (Test System: AMES SALMONELLA TYPHIMURIUM, Strain/Indicator: TA98, Metabolic Activation: HAMSTER, LIVER, S-9, AROCLOR 1254 (30%), Method: PREINCUBATION) “inactive; negative”; under setting [1], “inactive; negative”; (Test System: AMES SALMONELLA TYPHIMURIUM, Strain/Indicator: TA98, Metabolic Activation: RAT, LIVER, S-9, AROCLOR 1254 (10%), Method: PREINCUBATION) “inactive; negative”. Further, the mutagenic call runs as follows: (Test System: AMES SALMONELLA TYPHIMURIUM, Strain/Indicator: TA98, Metabolic Activation: RAT, LIVER, S-9, AROCLOR 1254 (30%), Method: PREINCUBATION) “inactive; negative”; (Test System: AMES SALMONELLA TYPHIMURIUM, Strain/Indicator: TA100, Metabolic Activation: HAMSTER, LIVER, S-9, AROCLOR 1254 (10%), Method: PREINCUBATION) “inactive; negative”; (Test System: AMES SALMONELLA TYPHIMURIUM, Strain/Indicator: TA100, Metabolic Activation: HAMSTER, LIVER, S-9, AROCLOR 1254 (30%), Method: PREINCUBATION) “inactive; negative”; under setting [2], “inactive; negative”; (Test System: AMES SALMONELLA TYPHIMURIUM, Strain/Indicator: TA100, Metabolic Activation: RAT, LIVER, S-9, AROCLOR 1254 (10%), Method: PREINCUBATION) “inactive; negative”; (Test System: AMES SALMONELLA TYPHIMURIUM, Strain/Indicator: TA100, Metabolic Activation: RAT, LIVER, S-9, AROCLOR 1254 (30%), Method: PREINCUBATION) “inactive; negative”. Also, the mutagenic call (Test System: AMES SALMONELLA TYPHIMURIUM, Strain/Indicator: TA1535, Metabolic Activation: HAMSTER, LIVER, S-9, AROCLOR 1254 (10%), Method: PREINCUBATION) is “inactive; negative”; the mutagenic call (Test System: AMES SALMONELLA TYPHIMURIUM, Strain/Indicator: TA1535, Metabolic Activation: HAMSTER, LIVER, S-9, AROCLOR 1254 (30%), Method: PREINCUBATION) was “inactive; negative”; the mutagenic call under setting [3] is “inactive; negative”; the mutagenic call (Test System: AMES SALMONELLA TYPHIMURIUM, Strain/Indicator: TA1535, Metabolic Activation: RAT, LIVER, S-9, AROCLOR 1254 (10%), Method: PREINCUBATION) was “inactive; negative”; the mutagenic call (Test System: AMES SALMONELLA TYPHIMURIUM, Strain/Indicator: TA1535, Metabolic Activation: RAT, LIVER, S-9, AROCLOR 1254 (30%), Method: PREINCUBATION) is “inactive; negative”; the mutagenic call (Test System: AMES SALMONELLA TYPHIMURIUM, Strain/Indicator: TA1537, Metabolic Activation: HAMSTER, LIVER, S-9, AROCLOR 1254 (30%), Method: PREINCUBATION) was “inactive; negative”. For the same compound, the mutagenic call was “inactive; negative” under setting [4] and “inactive; negative” (Test System: AMES SALMONELLA TYPHIMURIUM, Strain/Indicator: TA1537, Metabolic Activation: RAT, LIVER, S-9, AROCLOR 1254 (30%), Method: PREINCUBATION).

As for `Cc1nc(N)nc(N)n1`, the mutagenic call runs as follows: under setting [1], “inactive; negative”; under setting [5], “inactive; negative”; under setting [2], “inactive; negative”; under setting [6], “inactive; negative”; under setting [3], “inactive; negative”; under setting [7], “inactive; negative”. In addition, the mutagenic call runs as follows: under setting [4], “inactive; negative”; under setting [8], “inactive; negative”; (Test System: AMES SALMONELLA TYPHIMURIUM, Strain/Indicator: TA1538, Metabolic Activation: NONE, Method: PREINCUBATION) “inactive; negative”; (Test System: AMES SALMONELLA TYPHIMURIUM, Strain/Indicator: TA1538, Metabolic Activation: RAT LIVER S-9, PHENOBARBITAL AND BETA-NAPHTHOFLAVONE, Method: PREINCUBATION) “inactive; negative”; under setting [9], “inactive; negative”; under setting [10], “inactive; negative”.

Consider `C=C(C)C(=O)OCCN(C)C`, for which the mutagenic call runs as follows: under setting [1], “inactive; negative”; under setting [5], “inactive; negative”; under setting [2], “inactive; negative”; under setting [6], “inactive; negative”; (Test System: AMES SALMONELLA TYPHIMURIUM, Strain/Indicator: TA102, Metabolic Activation: NONE, Method: PREINCUBATION) “inactive; negative”; (Test System: AMES SALMONELLA TYPHIMURIUM, Strain/Indicator: TA102, Metabolic Activation: RAT LIVER S-9, PHENOBARBITAL AND BETA-NAPHTHOFLAVONE, Method: PREINCUBATION) “inactive; negative”. The mutagenic call is, setting by setting: (Test System: AMES SALMONELLA TYPHIMURIUM, Strain/Indicator: TA104, Metabolic Activation: NONE, Method: PREINCUBATION) “inactive; negative”; (Test System: AMES SALMONELLA TYPHIMURIUM, Strain/Indicator: TA104, Metabolic Activation: RAT LIVER S-9, PHENOBARBITAL AND BETA-NAPHTHOFLAVONE, Method: PREINCUBATION) “active; positive”; under setting [3], “inactive; negative”; under setting [7], “inactive; negative”; under setting [4], “inactive; negative”; under setting [8], “inactive; negative”. In addition, the mutagenic call by setting is: (Test System: E.COLI, Strain/Indicator: WP2UVRA/PKM101, Metabolic Activation: NONE, Method: PREINCUBATION) “inactive; negative”; (Test System: E.COLI, Strain/Indicator: WP2UVRA/PKM101, Metabolic Activation: RAT LIVER S-9, PHENOBARBITAL AND BETA-NAPHTHOFLAVONE, Method: PREINCUBATION) “inactive; negative”; under setting [9], “inactive; negative”; under setting [10], “inactive; negative”.
